Measurements reported in patent publication US11285169B2, “Methods for modulating chemotherapeutic cytotoxicity” (The United States of America, as represented by the …, priority 2013, dated 2022).

Assays:
CD47 null Jurkat cells = test system: CD47 null Jurkat cells
Procedure: (§1) Wild type or CD47 null Jurkat T cells were plated at a density of 7×10^3/well in 96 well plates or 500 cells/well in 1536 well plates. Cells were treated with increasing amounts of doxorubicin. Cell viability was measured 48 or 72 hours after treatment by MTS reduction or using CellTiter-Glo® cell viability assay (Promega, Madison Wis.).
(§2) Wild type or CD47 null Jurkat cells were plated at a density of 7×10^3/well in 96 well plates. Cells were treated with 10 μg/ml 5-FU or […] camptothecin. Cell viability was measured 72 hours after treatment by MTS reduction.

wild type Jurkat cells = test system: wild type Jurkat cells
Procedure: as §1, §2

4T1 breast tumors = assay: 4T1 breast cancer cells in mammary fat pad of Balb/c mice: tumor growth, weight, lung metastasis; assay type: in vivo, mouse; conditions: for tumor weight at end of study: excised tumors; for tumor growth (tumor volume): weekly treatment, followed for 30 days, Dox i.v., CD47 M i.p. 48 hours before
Procedure: Balb/c mice were injected with 5×10^3 4 T1 breast cancer cells in the mammary fat pad. Tumors were left untreated, treated with 100 μl of 10 μg/mL doxorubicin (Dox) or with 10 μg/mL Dox in combination with 10 μM CD47 Morpholino (CD47 M). Doxorubicin treatment was given intravenously weekly. Treatment with CD47 M was given intraperitoneally 48 hours prior to doxorubicin injection.
4T1B breast cancer cells were implanted in the mammary fat-pad of Balb/C mice. The mice were treated weekly with saline, doxorubicin, CD47 M, or the combination of CD47 M with doxorubicin. Tumor growth was measured using calipers and was followed for 30 days. Treatment with CD47 morpholino was done two days prior to each treatment with doxorubicin for four weeks.
Tumors were excised at the end of the study and weighed. Tumors of mice treated with saline tripled in size (FIG. 1B).
The 4T1 breast cancer model is a well known model for metastasis of orthotopic breast tumors to lung and other organs. Mice were injected in the mammary fat pad with 4T1 cells. CD47 morpholino was administered intraperitoneally at a dose of 10 μM per mouse. Doxorubicin was adminstered intravenously at a dose of 10 mg/kg. The CD47 morpholino was administered weekly and the Doxorubicin administration was done weekly 48 hours after CD47 treatment. Five mice per group were treated. Lungs were exised, paraffin embedded, and hematoxylin and eosin stain was used to determine tissue structure.

4T1 breast cancer cells [1] = assay: Oxygen consumption rate and extracellular acidification rate, XF24 analyzer, 4T1 cells; assay type: cell-based, mouse; conditions: for extracellular acidification rate (ECAR): 4T1B cells, same treatments as OCR; for oxygen consumption rate (OCR): 4T1 cells, CD47 morpholino 10 μM 48 hours, doxorubicin 10 μg/ml 1 hour
Procedure: (§3) 4T1 breast cancer cells or B16 melanoma cells (2×10^4 cells) were plated in the presence or absence of CD47 morpholino (10 μM). After a 48 hour period of incubation, cells were treated with doxorubicin for 1 hour (10 μg/ml). OCR and ECAR were measured using an XF24 analyzer (Seahorse Bioscience, N. Billerica, Mass.).
(§4) To start elucidating the molecular mechanism of breast cancer sensitization to anthracycline therapy with CD47 blockade oxygen consumption rate (OCR) was tested. OCR is a measurement of mitochondrial respiration and is extremely sensitive to changes in metabolic demand (Tao et al., Anal. Biochem. 381:43-52, 2008). Increased OCR is an indicator of mitochondrial dysfunction in transformed cells associated with tumor aggressiveness and resistance to therapy (Vaupel and Mayer, Int. J. Biochem. Cell Biol. 44:1477-1481, 2012). To measure OCR, 4T1 breast cancer cells or B16 melanoma cells were plated in 24-well plates using the XF24 flux analyzer (Seahorse Bioscience). Cells were exposed to known mitochondrial poisons (oligomicin, carbonilcyanide p-triflouromethoxy-phenylhydrazone FCCP, or […]) to determine basal and maximal OCR.
It is well known that cancer cells show increased glycolytic flux. […] The extracellular acidification rate (ECAR) was measured in 4T1B cells using the XF24 flux analyzer following the same treatments stated above.

B16 melanoma cells = assay: Oxygen consumption rate, XF24 analyzer, B16 cells; assay type: cell-based, mouse; conditions: CD47 morpholino 10 μM 48 hours, doxorubicin 10 μg/ml 1 hour
Procedure: as §3, §4

[2] = test system: Glut-1 glucose transporter; assay: Glut-1 expression in tumors by western blot; assay type: in vivo, mouse; conditions: western blot of excised tumors
Procedure: Glucose uptake was measured 24 hours after treatment by adding 2-NBDG, which is a fluorescently labeled deoxyglucose analog that is used primarily to directly monitor glucose uptake by living cells. This confirmed that the combination treatment modified glucose metabolism to sensitize cells to Dox treatment (FIG. 10). Furthermore, blockade of CD47 in combination with dox decreased expression of the Glut-1 glucose transporter in vivo (FIG. 11). Tumors of mice were exised and protein expression was determined by western blot hybridization. Expression of Glut-1 was not affected by treatment with saline, doxorubicin or CD47 morpholino (CD47M) alone. […] Glut-1 facilitates the transport of glucose in cells and is a poor prognostic factor in breast cancer and other cancer types.

PINK and PARKIN = PINK and PARKIN gene expression by qRT-PCR in 4T1 cells; assay type: cell-based, mouse; conditions: single agents
Procedure: Autophagy can promote either survival or death of tissue. Selective mitochondrial turnover by mitophagy in tumor tissue can shift this pathway to a pro-death response (Gargini et al., Autophagy 7:466-476, 2011). To further understand the mechanism of mitophagy in breast cancer cells, 4T1 breast cancer cells were plated and treated with CD47 morpholino for 48 hours. […] Gene expression was determined by qRT-PCR.

Atg5 and Atg7 = assay: Autophagy gene expression in hearts of WT and CD47 null mice; assay type: in vivo, mouse; conditions: 24 hours of treatment
Procedure: Samples were collected after 24 hours of treatment.
WT and CD47 null mice were treated with doxorubicin to determine effects on autophagy gene expression.

4T1 breast cancer cells [3] = assay: Cell viability by MTS reduction, 4T1 cells with or without CD47 morpholino; assay type: cell-based, mouse; conditions: 10 μM CD47 morpholino 48 hours, doxorubicin 72 hours
Procedure: Cells were plated in the presence or absence of 10 μM CD47 morpholino. After 48 hours, cells were treated with the indicated amounts of doxorubicin (10 μg/ml in FIGS. 7B and C). Cell viability was measured 72 hours after treatment by MTS reduction (FIGS. 7A and D) or 24 hours after treatment by lactate dehydrogenase (LDH) release (FIGS. 7B and C). * p<0.001. Control cells were untreated and Endoporter indicates treatment with vehicle without morpholino in FIGS. 7B and C.
4T1 breast cancer cells were treated with CD47 morpholino and treated with increasing concentrations of doxorubicin.

PINK = PINK immunostaining of tumor and heart sections; assay type: in vivo, mouse; conditions: heart
Procedure: Briefly, slides were deparaffinized in xylene and rehydrated in graded alcohol. Antigen retrieval was performed using microwave antigen retrieval method with Target Retrieval Solution, pH 6.1 (Dako, Carpinteria, Calif.). […] Slides were incubated with respective antibodies. Sections were treated with streptavidin-biotin and DAB (3,3-diaminobenzidine) was used as chromogen. Hematoxylin was used for counterstaining. The intensity of the staining was evaluated under light microscopy.
Tissue sections from the initial tumor model were immune-stained for PINK.

cardiac tissue = conditions: mouse, in vivo
Source text: Hearts were collected from mice at the end of the tumor studies after four rounds of weekly doxorubicin treatment in the presence or absence of CD47 blockade. Sections were paraffin embedded and stained with H&E to determine tissue histology.
Tissue sections were subjected to TUNEL staining to detect cell death.

lung tissue = conditions: mouse, in vivo
CD47 = assay: Western blot of CD47 protein in tumors; assay type: in vivo, mouse; conditions: 48 hours after treatment

| Compound | cytotoxicity (CD47 null Jurkat cells; human) | cytotoxicity (wild type Jurkat cells; human) | cell viability (CD47 null Jurkat cells; CD47 deficient Jurkat T cells, increasing concentration of doxorubicin, 72 hours) | cell viability (wild type Jurkat cells; WT Jurkat T cells, increasing concentration of doxorubicin, 72 hours) | tumor weight at end of study (4T1 breast tumors) | tumor growth (tumor volume) (4T1 breast tumors) | extracellular acidification rate (ECAR) (4T1 breast cancer cells [1]) | oxygen consumption rate (OCR) (4T1 breast cancer cells [1]) | oxygen consumption rate (OCR) (B16 melanoma cells) | Glut-1 expression in tumors [2] | PINK and PARKIN gene expression (in words) (PINK and PARKIN) | Atg5 and Atg7 mRNA levels in hearts (Atg5 and Atg7; CD47 null mice) | Atg5 mRNA level in hearts (Atg5 and Atg7; WT mice) | cell viability (4T1 breast cancer cells [3]) | PINK expression in hearts (PINK) | cardiac tissue histology (H&E) (cardiac tissue) | cell death in cardiac tissue (TUNEL staining) (cardiac tissue) | lung tissue condition / fibrosis (lung tissue) | CD47 protein in tumors (CD47) |
| --- | --- | --- | --- | --- | --- | --- | --- | --- | --- | --- | --- | --- | --- | --- | --- | --- | --- | --- | --- |
| CC[C@@]1(O)C(=O)OCc2c1cc1n(c2=O)Cc2cc3ccccc3nc2-1 [Camptothecin] | 56% | 79% | – | – | – | – | – | – | – | – | – | – | – | – | – | – | – | – | – |
| COc1cccc2c1C(=O)c1c(O)c3c(c(O)c1C2=O)C[C@@](O)(C(=O)CO)C[C@@H]3O[C@H]1C[C@H](N)[C@H](O)[C@H](C)O1 [Doxorubicin] | – | – | dose-dependent protection | decreased viability | reduction in tumor weight | slightly delayed tumor growth | high acidification in the media | showed the same pattern | showed the same pattern | not affected | minimal effects | markedly increased | slight reduction of Atg5 | reduction in cell viability | No change in PINK expression | characteristic degeneration of cardiac muscle | high TUNEL positive staining | less fibrosis | – |
| CD47 morpholino: antisense morpholino oligonucleotide complementary to human and murine CD47, CGTCACAGGCAGGACCCACTGCCCA (SEQ ID NO: 3) (all phosphorodiamidate morpholino (PMO)) | – | – | – | – | reduction in tumor weight | slightly delayed tumor growth | slight decrease in the ECAR | caused a reduction in OCR | caused a reduction in OCR | not affected | minimal effects | – | – | – | – | – | – | – | decrease in CD47 protein |
